Assay results from ChEMBL document CHEMBL1201862, “PubChem BioAssay data set” (2004).
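The compound was tested at five concentrations on cells cultured in 96-well plates, with a 48-hour exposure period. At the GI50, growth is halved.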 Active and inactive are the calls of the source. Rule as the data show it: active = GI50 up to about 1.1 µM and inactive = higher.

What was measured:
Test in all cases: NCI-60 cell line screen, 48 h
HCC 2998 = test system: HCC 2998
U-251 = test system: U-251
RPMI-8226 = test system: RPMI-8226
SN12C = test system: SN12C
OVCAR-4 = test system: OVCAR-4
IGROV-1 = test system: IGROV-1
UACC-257 = test system: UACC-257
786-0 = test system: 786-0
SF-539 = test system: SF-539
SK-OV-3 = test system: SK-OV-3
MOLT-4 = test system: MOLT-4
SNB-75 = test system: SNB-75
HCT-15 = test system: HCT-15
HOP-62 = test system: HOP-62
UACC-62 = test system: UACC-62
CCRF-CEM = test system: CCRF-CEM

Structure (SMILES) | GI50 (HCC 2998) | GI50 (U-251) | GI50 (RPMI-8226) | GI50 (SN12C) | GI50 (OVCAR-4) | GI50 (IGROV-1) | GI50 (UACC-257) | GI50 (786-0) | GI50 (SF-539) | GI50 (SK-OV-3) | GI50 (MOLT-4) | GI50 (SNB-75) | GI50 (HCT-15) [µM] | GI50 (HOP-62) | GI50 (UACC-62) | GI50 (CCRF-CEM)
CC1=C/C(=C2/N=C(N(C)C)SS2)C(C)=N1.[O-][Cl+3]([O-])([O-])O | > 100 µM (inactive) | > 100 µM (inactive) | > 100 µM (inactive) | > 100 µM (inactive) | 71.3 µM (inactive) | > 100 µM (inactive) | > 100 µM (inactive) | > 100 µM (inactive) | > 100 µM (inactive) | > 100 µM (inactive) | > 100 µM (inactive) | > 100 µM (inactive) | > 100 | > 100 µM (inactive) |  | 
COc1nc2c(nc(N)n2C2OC(CO)C(O)C(O)C2O)c(=O)[nH]1 (centres undefined) | > 100 µM (inactive) | > 100 µM (inactive) |  | > 100 µM (inactive) | > 100 µM (inactive) | > 100 µM (inactive) | > 100 µM (inactive) | > 100 µM (inactive) | > 100 µM (inactive) | > 100 µM (inactive) |  | > 100 µM (inactive) |  | > 100 µM (inactive) | > 100 µM (inactive) | > 100 µM (inactive)
CC1(C)OC2COC3(CNO)OC(C)(C)OC3C2O1 (centres undefined) | > 100 µM (inactive) | > 100 µM (inactive) |  | > 100 µM (inactive) | > 100 µM (inactive) | > 100 µM (inactive) | > 100 µM (inactive) | > 100 µM (inactive) | > 100 µM (inactive) | > 100 µM (inactive) | > 100 µM (inactive) | > 100 µM (inactive) | > 100 | > 100 µM (inactive) | > 100 µM (inactive) | > 100 µM (inactive)
COc1ccc(OC)c2c(C(=O)O)c(Cc3ccccc3)ccc12 | > 100 µM (inactive) | > 100 µM (inactive) |  | > 100 µM (inactive) | > 100 µM (inactive) | > 100 µM (inactive) | > 100 µM (inactive) | > 100 µM (inactive) |  | > 100 µM (inactive) | > 100 µM (inactive) | > 100 µM (inactive) | > 100 | > 100 µM (inactive) | > 100 µM (inactive) | > 10 µM (inactive)
COC1C=C(Nc2cccc(Cl)c2)C(=O)C1 (centres undefined) | 53.8 µM (inactive) | 32.3 µM (inactive) |  | 64.9 µM (inactive) | > 100 µM (inactive) | > 100 µM (inactive) | > 100 µM (inactive) | > 100 µM (inactive) | 58.2 µM (inactive) | 48.8 µM (inactive) | 49.3 µM (inactive) | 43.9 µM (inactive) |  | > 100 µM (inactive) | 60 µM (inactive) | 63.1 µM (inactive)
CC(=O)Nc1ccc(/C=c2\sc3nnc(CCC(=O)Nc4ccccc4Cl)n3c2=O)cc1 | > 10 µM (inactive) | 17.9 µM (inactive) | 20.8 µM (inactive) | 39.6 µM (inactive) | 20.6 µM (inactive) | > 100 µM (inactive) | > 10 µM (inactive) | 21.8 µM (inactive) | 23.5 µM (inactive) | > 100 µM (inactive) | 19.4 µM (inactive) |  | 44.6 | 54 µM (inactive) | 23.9 µM (inactive) | 18.3 µM (inactive)
N#CC(C(=O)CCC(=O)Nc1ccc(Cl)cc1)c1ccccc1Cl (centres undefined) |  | > 100 µM (inactive) | > 100 µM (inactive) | > 100 µM (inactive) | > 100 µM (inactive) | > 100 µM (inactive) | > 100 µM (inactive) | > 100 µM (inactive) | > 100 µM (inactive) | > 100 µM (inactive) | > 100 µM (inactive) | 45.9 µM (inactive) | 21 |  | 16 µM (inactive) | > 100 µM (inactive)
O=C(O)CC(O)(c1ccccc1C(=O)O)c1cccc2ccccc12 (centres undefined) |  | > 100 µM (inactive) | > 100 µM (inactive) | > 100 µM (inactive) | > 100 µM (inactive) | > 100 µM (inactive) | > 100 µM (inactive) | > 100 µM (inactive) | > 100 µM (inactive) | > 100 µM (inactive) | > 100 µM (inactive) | > 100 µM (inactive) | > 100 | > 100 µM (inactive) | > 100 µM (inactive) | > 100 µM (inactive)
